PMC12040169 (PLOS Biology, 2025)

Assay: in vitro
Details: human, hela cells, % viability

Structure (SMILES) | viability at 28.5 h, 10 µM [%]
COc1ccc(-c2cc(C(=O)N/N=C/c3c(C)[nH]c4ccccc34)[nH]n2)cc1 [CBK262884] | 55.7
O=C1CC(C(=O)O)SC(NNC(=O)c2ccccc2)=N1 (stereo not drawn) [CBK267944] | 91.2
O=C(NC(N1CCCCC1)C(Cl)(Cl)Cl)c1ccc(Cl)cc1Cl (stereo not drawn) [CBK261024] | 91.6
OC(Cn1nc(-c2ccccc2)cc1-c1ccccc1)Cn1c2ccc(Cl)cc2c2cc(Cl)ccc21 (stereo not drawn) [CBK261418] | 84.7
Cc1ccc(Cl)cc1NC(=O)c1ccc(NCCN2C(=O)C3C4C=CC(C4)C3C2=O)c([N+](=O)[O-])c1 (stereo not drawn) [CBK268357] | 92.2
Cc1cc(C)nc(N/C(=N\C(=O)Nc2ccccc2)NCc2cccnc2)n1 [CBK132681] | 92.2
Cc1ccccc1COc1cccc(Cl)c1Cl [CBK002607] | 90.6
O=C(NCCNc1c(Cl)cccc1[N+](=O)[O-])c1cccc(Br)c1 [CBK263940] | 91.4
COC(=O)c1ccccc1NC(=O)NCc1cc(C)n(C)n1 [CBK266887C] | 109
Cc1nc(C)n(CC(=O)NCCCc2ccc(Cl)cc2)n1 [CBK281559] | 90.9
Cc1cc(S(=O)(=O)N(CCC#N)Cc2ccccc2)c(C)cc1Cl [CBK043461] | 90.8
CCCc1c(O)nc(SCC(=O)NCc2ccco2)[nH]c1=O [CBK073278] | 95.2
COCc1cc(-c2ccc(C(=O)N3CCN(C)CC3)nc2)ccc1OCC1CCN(C(=O)OC(C)(C)C)CC1 [CBK174511] | 84
Nc1cccc(S(=O)(=O)N2CCC(C(=O)O)CC2)c1 [CBK286541] | 88.2
Cc1csc(N2CCN(CC(O)COCc3ccco3)CC2)n1 (stereo not drawn) [CBK306151] | 98.5
COc1ccc(NC(=O)CSc2nnc(N)s2)cc1 [CBK058635] | 104
Nc1ncc(-c2ccc(OC(F)(F)F)cc2)nc1-c1ccc(O)cc1 [CBK122506] | 95.8
Cn1ccnc1C1(O)CCN(C(=O)c2cc(F)cc(F)c2)CC1 [CBK283544] | 102
COc1ccc(Oc2nccnc2N2CCN(Cc3ccc4c(c3)OCO4)CC2)cc1OC [CBK083048T] | 106
CCC1(CC)OC(NC2CCCc3ccccc32)=NC1=O (stereo not drawn) [CBK126555] | 99.1
Cc1nn(C)c(C)c1-c1ccc(=O)n(Cc2ccc(F)cc2)n1 [CBK282258] | 95.3
Clc1ccc(-c2cc(NC3CCCCC3)ncn2)cc1 [CBK090902] | 101

Structure (SMILES) | viability at 28.5 h, 10 µM [%]
O=C(CSCc1nc2ccccc2[nH]1)Nc1ccc2ccccc2c1 [CBK263262] | 90.5
COc1ccc(CN2CCNC(=O)C2CC(=O)O)cc1OC (stereo not drawn) [CBK269991] | 102
CCOc1cc(/C=C2\S/C(=N/c3ccc(S(N)(=O)=O)cc3)NC2=O)c(Br)cc1O [CBK265622] | 95
CCc1nc2cc(NC(=O)c3csc(C(C)=O)c3)ccc2n1C [CBK282522] | 105
COc1ccc(/C=C/c2nc(C#N)c(NCc3cccnc3)o2)cc1OC [CBK269240] | 91.3
CC(=O)c1ccc(NC(=O)COn2nnc3ccc([N+](=O)[O-])cc32)cc1 [CBK266980] | 101
O=C(C1=C(O)C(=O)N(CCCN2CCOCC2)C1c1ccccn1)c1ccc(Cl)cc1 (stereo not drawn) [CBK266445] | 112
CCCn1c(SCc2csc(CC(=O)Nc3ccccc3C)n2)n[nH]c1=O [CBK296969] | 91.1
CC(C)(C)c1ccc(S(=O)(=O)NCc2ccc(C(=O)NCc3ccccn3)cc2)cc1 [CBK267248] | 115
O=C(CN1CCCC1Cn1cccn1)N1CCCc2ccccc21 (stereo not drawn) [CBK281971] | 89
O=C(c1ccc(F)cc1)[C@H]1CCCN(C(=O)c2ccco2)C1 [CBK284328] | 80.7
Cc1ccc(OC(C)C(=O)NNC(=O)c2ccc([N+](=O)[O-])cc2)cc1 (stereo not drawn) [CBK269065] | 104
O=C(NC1Cc2ccccc2C1)c1cscn1 [CBK200363] | 93.5
Cn1c(=O)n(CC(=O)N2CCCc3ccccc32)c2cccnc21 [CBK283790] | 86.7
CS(=O)(=O)Nc1cccc(C(=O)O)c1 [CBK160404] | 96.3
O=C(NCc1cccnc1)C(=O)Nc1cc2c3c(c1)CCC(=O)N3CCC2 [CBK287728] | 92
COc1ccc(-c2cnc(N)c(N[C@@H](C)c3ccccc3)n2)c(OC)c1OC [CBK063763] | 84.9
O=C1Nc2ccc(-c3ccccc3F)cc2C(=O)N2CCN(C(=O)C3CCNCC3)C[C@H]12 [CBK289592] | 87.3
O=C(Cc1nnc(-c2ccncc2)o1)NCCC1=CCCCC1 [CBK288605] | 117
Cc1nc(-c2ccccc2)cc([C@H]2CN3CC[C@H]2C[C@@H]3CNC(=O)NC(C)C)n1 [CBK289126] | 89.9
O=C(O)CCN1C(=O)C(O)=C(C(=O)c2ccc(Cl)cc2)C1c1ccccc1[N+](=O)[O-] (stereo not drawn) [CBK264553] | 98.8
CN(C)CCN1CCN(c2cccc(-c3ccncc3)n2)CC1 [CBK037029] | 95.9

Structure (SMILES) | viability at 28.5 h, 10 µM [%]
NC(CCc1nc2ccccc2[nH]1)c1nc2ccccc2[nH]1 (stereo not drawn) [CBK269970] | 96.2
CC(=O)Nc1ccc(N2C(=O)CSC23C(=O)Nc2ccccc23)cc1 (stereo not drawn) [CBK095916] | 91.7
Cc1cc(C)n(CCCn2cncc2-c2ccc3c(c2)CC(C)N3C)n1 (stereo not drawn) [CBK281773] | 62
CCOC(=O)CCNC(=O)c1cncc(-c2ccc(C(=O)N3CCOCC3)cc2)c1 [CBK158645] | 92.6
CCOC(=O)N1CCC(NS(=O)(=O)c2ccc(OC)c(OC)c2)CC1 [CBK045464] | 104
COC1C(O)C(CO)OC1n1cnc2c(=O)[nH]c(N)nc21 (stereo not drawn) [CBK201324] | 96.2
Cn1c(=O)n(CCN2CCOCC2)c(=O)c2c1nc1n2CCN1c1ccccc1 [CBK269328] | 95.1
CC(C)Cc1noc(CN2CCC(C(=O)NCc3ccco3)CC2)n1 [CBK305995] | 107
Nc1ccc(C(=O)Nc2ccc(Nc3cc(-c4cc(C(F)(F)F)cc(C(F)(F)F)c4)ncn3)cc2)cc1 [CBK091091] | 94.8
COCC(=O)Nc1cc(OC)c(Cl)cc1OC [CBK264448] | 103
c1ccc2c3c([nH]c2c1)C12CCN(CC1)C(C1CCOC1)N2CC3 (stereo not drawn) [CBK284433] | 88.2
O=C(C1=C(O)C(=O)N(CCCn2ccnc2)C1c1ccncc1)c1ccc(F)cc1 (stereo not drawn) [CBK264601] | 93.7
N#CCCSc1nnc(-c2cccnc2)n1Cc1ccccc1 [CBK267526] | 100
Cc1cnccc1-c1cn(C)nc1-c1ccc(CNC(=O)c2cccc(N(C)C)c2)cc1 [CBK285633] | 86.5
CN(C(=O)CSc1nc2ccccc2nc1Cc1ccc(Cl)cc1)C1CCCCC1 [CBK294411] | 104
O=C(c1cccs1)N1Cc2ccccc2OC2(CCOCC2)C1 [CBK284942] | 103
O=C1N[C@@H]2CCN(S(=O)(=O)c3cccs3)[C@@H]2C(=O)N1c1ccc(F)cc1 [CBK289326] | 89.1
CCOC(=O)c1sc2nccc(N(C)C)c2c1-n1cccc1 [CBK115381] | 93.4
Cc1ccc2oc(C(=O)N(C)Cc3c(C)nn(C)c3C)c(C)c2c1 [CBK281631] | 80.9
CCOC(=O)N1CCC(NC(=O)N2CCN(C3CCN(C)CC3)CC2)CC1 [CBK156113] | 92.2
Cc1ccc(-c2n[nH]c(=O)o2)cc1Br [CBK288443] | 85.9
O=C(NC[C@H]1C[C@@H]2CC[N@]1C[C@@H]2CN1CCN(c2ncccn2)CC1)c1ccco1 [CBK289115] | 88.1

Structure (SMILES) | viability at 28.5 h, 10 µM [%]
Cc1cc(C)n(CC(=O)N2CCNC(=O)C2c2ccccc2Cl)n1 (stereo not drawn) [CBK306421] | 92.6
COc1cc(OC)c(NS(=O)(=O)c2ccc(C(=O)O)cc2)cc1Cl [CBK296620] | 97.5
CCCCNC(=O)c1ccc2c(c1)NC(=O)C(N1CCCC1)S2 (stereo not drawn) [CBK071762] | 98.4
CN(C)C(=O)c1nccnc1-c1ccc(COc2ccc3c(c2)OCO3)cc1 [CBK050829] | 91.1
Cc1ccc(N2C(=O)CSC23C(=O)Nc2ccccc23)cc1Br (stereo not drawn) [CBK093472] | 104
COC(=O)N1CCC(C(=O)NC(c2ccccc2)c2ncccc2C)CC1 (stereo not drawn) [CBK059885] | 92.6
COC(=O)c1c(NC(=O)c2ccncc2)sc2c1CCC2 [CBK262637] | 88.1
CC1(C(=O)O)NC(c2ccccc2O)C2C(=O)N(c3ccccc3[N+](=O)[O-])C(=O)C21 (stereo not drawn) [CBK264979] | 107
Cc1cccc(NCC(O)Cn2c3ccc(Br)cc3c3cc(Br)ccc32)c1 (stereo not drawn) [CBK261419] | 94.5
Cn1cccc1C(=O)N[C@H]1CCN2C(=O)N(c3ccc(OC(F)(F)F)cc3)C(=O)[C@@H]2C1 [CBK289548] | 94.7
O=S(=O)(Nc1nnn[nH]1)c1ccc(Br)cc1C(F)(F)F [CBK062388] | 104
CC1CC1C(=O)NCC(=O)N1CCN(S(=O)(=O)c2ccccc2[N+](=O)[O-])CC1 (stereo not drawn) [CBK296747] | 90.4
Cc1c(C(=O)N2CCn3nc(CO)cc3C2)n(C)c2ccc(F)cc12 [CBK306552] | 97.7
Cc1cccc(C)c1NC(=O)CN1CCN(c2nccnc2OC2CCCCC2)CC1 [CBK082835T] | 103
CCc1nc2c(OCc3ccccc3)cccn2c1N(Cc1ccc(OC)cc1)C(C)=O [CBK147887] | 89.8
CCSC1CCC(N(C)CC(=O)NCc2ccco2)C1 (stereo not drawn) [CBK304823] | 84.3
CC1CN(c2cc(CNCc3cnn4ccccc34)ccn2)CCO1 (stereo not drawn) [CBK304018] | 84.1
CCn1c2cc(C)sc2c2cnn(CC(=O)OC)c(=O)c21 [CBK284186] | 86.3
O=C(CN1CCCC1)NC1CCCc2c1cnn2-c1ccc(F)cc1 (stereo not drawn) [CBK283930] | 91.5
OC1CCN(Cc2ccc(-c3ccc(F)cc3F)o2)CC1 [CBK283200] | 98.9
O=[N+]([O-])c1ccccc1S(=O)(=O)Nc1cc(C(F)(F)F)ccc1Cl [CBK015721] | 93.3
